Literature values in Sander's compilation of Henry's law constants (doi:10.1016/s0045-6535(00)00505-1).

Test: Henry solubility constant Hcp at 298.15 K (mol/(m3 Pa))
Conditions: reference: Staudinger and Roberts (2001); cited value

## CI [iodomethane]
  Henry solubility constant Hcp: 0.002

## Cc1cccc(C)c1 [1,3-dimethylbenzene]
  Henry solubility constant Hcp: 0.0014

## Clc1ccccc1 [chlorobenzene]
  Henry solubility constant Hcp: 0.0027

## Cc1ccc(C)cc1 [1,4-dimethylbenzene]
  Henry solubility constant Hcp: 0.0013

## FC(F)(Cl)Cl [dichlorodifluoromethane]
  Henry solubility constant Hcp: 3.1e-05

## CC(=O)OO [ethanoic peroxyacid]
  Henry solubility constant Hcp: 7.3

## CBr [bromomethane]
  Henry solubility constant Hcp: 0.0017

## C=C(Cl)Cl [1,1-dichloroethene]
  Henry solubility constant Hcp: 0.00034

## ClC(Br)Br [dibromochloromethane]
  Henry solubility constant Hcp: 0.0086

## CC(=O)c1ccccc1 [1-phenylethanone]
  Henry solubility constant Hcp: 1.1

## ClC=C(Cl)Cl [trichloroethene]
  Henry solubility constant Hcp: 0.001

## CC#N [ethanenitrile]
  Henry solubility constant Hcp: 0.51

## CC(Cl)(Cl)Cl [1,1,1-trichloroethane]
  Henry solubility constant Hcp: 0.00059

## ClC(Cl)Br [bromodichloromethane]
  Henry solubility constant Hcp: 0.004

## CCCCO[N+](=O)[O-] [1-butyl nitrate]
  Henry solubility constant Hcp: 0.0088

## BrC(Br)Br [tribromomethane]
  Henry solubility constant Hcp: 0.017

## CSC [dimethyl sulfide]
  Henry solubility constant Hcp: 0.0053

## CC(Cl)CCl (centres undefined) [1,2-dichloropropane]
  Henry solubility constant Hcp: 0.0034

## CCCl [chloroethane]
  Henry solubility constant Hcp: 0.00084

## ClCC(Cl)CCl [1,2,3-trichloropropane]
  Henry solubility constant Hcp: 0.036

## CS [methanethiol]
  Henry solubility constant Hcp: 0.0028

## ClCC(Cl)Cl [1,1,2-trichloroethane]
  Henry solubility constant Hcp: 0.011

## O=Cc1ccccc1 [benzaldehyde]
  Henry solubility constant Hcp: 0.38

## CC(C)c1ccccc1 [(2-propyl)-benzene]
  Henry solubility constant Hcp: 0.0012

## c1ccccc1 [benzene]
  Henry solubility constant Hcp: 0.0017

## CC(C)=O [propanone]
  Henry solubility constant Hcp: 0.28

## ClC(Cl)(Cl)Cl [tetrachloromethane]
  Henry solubility constant Hcp: 0.00034

## C=CCl [chloroethene]
  Henry solubility constant Hcp: 0.00039

## Cc1ccccc1C [1,2-dimethylbenzene]
  Henry solubility constant Hcp: 0.002

## Cc1ccccc1 [methylbenzene]
  Henry solubility constant Hcp: 0.0015

## ClCC(Cl)(Cl)Cl [1,1,1,2-tetrachloroethane]
  Henry solubility constant Hcp: 0.024

## COO [methyl hydroperoxide]
  Henry solubility constant Hcp: 3.1

## ClCCl [dichloromethane]
  Henry solubility constant Hcp: 0.0036

## CC(=O)C(=O)O [2-oxopropanoic acid]
  Henry solubility constant Hcp: 3000

## CCCCC(=O)O [pentanoic acid]
  Henry solubility constant Hcp: 23

## ClC(Cl)=C(Cl)Cl [tetrachloroethene]
  Henry solubility constant Hcp: 0.00059

## CCc1ccccc1 [ethylbenzene]
  Henry solubility constant Hcp: 0.0013

## OCOO [hydroxymethyl hydroperoxide]
  Henry solubility constant Hcp: 16000

## CCCC(C)O[N+](=O)[O-] (centres undefined) [2-pentyl nitrate]
  Henry solubility constant Hcp: 0.0037
